Test results as given in patent EP0402259A1, “Anthracyclines, process for their preparation and medicaments containing them” (LABORATOIRES HOECHST S.A., priority 1989, dated 1990).
Values after ≈ are worked out from the molar mass of the structure shown.

What was measured:
LXF = assay: Xenograft (subrenal capsule assay), LXF lung tumour; assay type: in vivo; conditions: for Xénogreffes LXF: grades not defined
HT29 = assay: Xenograft (subrenal capsule assay), HT29 colon tumour; assay type: in vivo
L1210 = assay: In vivo L1210 leukemia, survival time (T/C); set-up: species or system souris BDF1
Description: Un liquide d'ascite est prélevé dans des conditions aseptiques chez des souris DBA2 (femelle, 18 -20 g) le septième jours après l'implantation.
L'ascite est lavée trois fois avec du PBS, comptée et finalement diluée dans du PBS, de manière à obtenir 10^6 cellules/0,2 ml.
10^6 cellules dans 0,2 ml de PBS sont injectées dans le peritoine de souris DBA2 pour la propagation de la lignée cellulaire.
10^6 cellules dans 0,2 ml de PBS sont injectés intrapéritonéalement à des souris BDF1 (femelle 18 -20 g), 6 animauxigroupe sont utilisés pour chaque concentration de substance et pour le contrôle.
• a) les animaux sont pesés le premier jour et le cinquième jour après l'administration du médicament.
A partir du temps de survie moyen des groupes traités (MSTT) et des groupes contrôle (MSTc), l'effet antitumoral (T/C) est évalué en fonction de la formule suivante : [formula]

A549 = assay: Xenograft (subrenal capsule assay), A549; assay type: in vivo
cellules tumorales L1210 = assay: Proliferation test (MTT reduction), L1210; assay type: cell-based; conditions: L1210, 72 h incubation; for IC50: Mus musculus, L1210, 72 h, read-out: CI50 TEST AU MTT L1210
Description: (§1) Les témoins consistent en cellules tumorales exposées à un milieu de culture. Quatre puits sont préparés pour chaque concentration en anthracycline et pour le témoin. Après 65 heures. 50 µl de MTT (2,5 mg/ml dans du PBS) sont ajoutés.
(§2) Le MTT sera réduit en présence de cellules vivantes en un colorant formazan rouge insoluble. Après 7 à 24 heures d'incubation supplémentaire (dépendant des cellules utilisées), le surnageant est enlevé. Le colorant formazan est solubilisé par l'addition de 100 ul de DMSO dans chaque puits, suivie d'une agitation douce.
(§3) L'extinction est mesurée pour chaque puits, à 492 nm (photomètre Multiscan 340 CC Fa. Flow).
(§4) Les résultats sont exprimés comme le rapport de l'extinction après incubation avec les anthracyclines sur l'extinction obtenue avec les témoins.

cellules tumorales A549 = assay: Proliferation test (MTT reduction), A549; assay type: cell-based; conditions: A 549, 72 h incubation; for IC50: Homo sapiens, A549, 72 h, read-out: CI50 TEST AU MTT A 549
Description: as §1, §2, §3, §4

cellules tumorales HT29 = assay: Proliferation test (MTT reduction), HT29; assay type: cell-based; conditions: HT 29, 72 h incubation; for IC50: Homo sapiens, HT-29, 72 h, read-out: CI50 TEST AU MTT HT 29
Description: as §1, §2, §3, §4

[1] = L1210 i.p. in BDF1 mice, schedule 3 i.v.

SMILES	Xénogreffes LXF (LXF)	dose optimale (L1210; [1])	IC50 (cellules tumorales L1210)	IC50 (cellules tumorales A549)	IC50 (cellules tumorales HT29)	CI50 TEST AU MTT L1210 (cellules tumorales L1210)	CI50 TEST AU MTT A 549 (cellules tumorales A549)	CI50 TEST AU MTT HT 29 (cellules tumorales HT29)	other results
COc1cccc2c1C(=O)c1c(O)c3c(c(O)c1C2=O)C[C@@](O)(C(=O)CO)C[C@@H]3O[C@H]1C[C@H](N)[C@H](O)[C@H](C)O1 [doxorubicine, reference compound]	+ + +	8,1 mg/kg/Inj.	–	–	–	–	–	–	Xénogreffes HT29 (HT29; grades not defined): + +; Xénogreffes A549 (A549; grades not defined): + +
C[C@@H]1O[C@@H](O[C@H]2C[C@](O)(CO)Cc3c(O)c4c(c(O)c32)C(=O)c2ccccc2C4=O)C[C@H](O)[C@@H]1N=[N+]=[N-] [compound 6]	–	–	0.13 µg/mL (≈ 0.254 µM)	0.24 µg/mL (≈ 0.469 µM)	0.46 µg/mL (≈ 0.899 µM)	–	–	–	–
C[C@@H]1O[C@@H](O[C@H]2C[C@](O)(CO)Cc3c(O)c4c(c(O)c32)C(=O)c2ccccc2C4=O)C[C@H](O)[C@@H]1N [Composé 13, chlorhydratede (S)-cis-1-O-(4-amino-2,4,6-trideoxy-α-L-lyxo-hexopyranosyl)-1,2.3.4,6.11-hexahydro-1,3,5,12-tétrahydroxy-3-hydroxyméthyl-6,11-naphtacène dione]	+ +	3,1 mg/kg/Inj.	–	–	–	0,009 µg/ml	0,009 µg/ml	0,01 µg/ml	activité sur tumeur du poumon (LXF) (LXF; in words): actif; activité sur tumeur du colon (HT29) (HT29; in words): à un moindre degré; T/C % (L1210; L1210 i.p. in BDF1 mice, schedule 3 i.v., at optimal dose, T/C above 125 % = significant antitumour effect): 133%; activité antitumorale (L1210; in words, at a dose about three times lower than that of doxorubicine): activité antitumorale non négligeable; activité sur la lignée cellulaire A549 (A549; in words): à un moindre degré
C[C@@H]1O[C@@H](O[C@H]2C[C@](O)(CO)Cc3c(O)c4c(c(O)c32)C(=O)c2ccccc2C4=O)C[C@H](O)[C@@H]1N [compound 12, (S)-cis-1-O-{4 amino-2,4,6-trideoxy-α-L-lyxo-hexopyranosyl)-1,2,3,4,6,11-hexahydro-1,3,5,12-tétrahydroxy-3-hydroxyméthyl-6,11-naphtacène dione]	–	–	–	–	–	0,021 µg/ml	0,24 µg/ml	0,03 µg/ml	–
C[C@@H]1O[C@@H](O[C@H]2C[C@](O)(CO)Cc3c(O)c4c(c(O)c32)C(=O)c2ccccc2C4=O)C[C@H](O)[C@@H]1N1CCOCC1 [compound 14, (S)-cis-1-O-{4-morpholino-2,4,6-tridésoxy-α-L-lyxo-hexopyranosyl)-1,2,3,4,6,11-hexahydro-1,3,5,12-tétrahydroxy-3-hydroxyméthyl-6,11-naphtacène dione]	–	–	0.15 µg/mL (≈ 0.27 µM)	0.054 µg/mL (≈ 0.0972 µM)	0.13 µg/mL (≈ 0.234 µM)	–	–	–	–
C[C@@H]1O[C@@H](O[C@H]2C[C@](O)(CO)Cc3c(O)c4c(c(O)c32)C(=O)c2ccccc2C4=O)C[C@H](O)[C@@H]1NC(=O)C(F)(F)F [compound 11]	–	–	0.015 µg/mL (≈ 0.0258 µM)	0.011 µg/mL (≈ 0.0189 µM)	0.026 µg/mL (≈ 0.0447 µM)	–	–	–	–
